Reference: ChEMBL document CHEMBL5050844 (2019)

Tests used:
[1] = Induction of anti-CD3/CD28 antibodies-stimulated human T cell activation at 4 uM assessed fold increase in IL-2 secretion measured by ELISA assay; format: functional, T cell line
[2] = Induction of anti-CD3/CD28 antibodies-stimulated human T cell activation at 0.3 uM assessed fold increase in IL-2 secretion measured by ELISA assay; format: functional, T cell line
[3] = Induction of anti-CD3 antibodies-stimulated human T cell activation at 8 uM assessed fold increase in IL-2 secretion measured by ELISA assay; format: functional, T cell line
[4] = Induction of anti-CD3 antibodies-stimulated human T cell activation at 1 uM assessed fold increase in IL-2 secretion measured by ELISA assay; format: functional, T cell line
[5] = Induction of anti-CD3/CD28 antibodies-stimulated human T cell activation at 4 uM assessed fold increase in CD25 expression measured by ELISA assay; format: functional, T cell line
[6] = Induction of anti-CD3/CD28 antibodies-stimulated human T cell activation at 1 uM assessed fold increase in CD25 expression measured by ELISA assay; format: functional, T cell line
[7] = Induction of anti-CD3/CD28 antibodies-stimulated human T cell activation at 0.3 uM assessed fold increase in CD25 expression measured by ELISA assay; format: functional, T cell line
[8] = Induction of anti-CD3 antibodies-stimulated human T cell activation at 8 uM assessed fold increase in CD25 expression measured by ELISA assay; format: functional, T cell line
[9] = Induction of anti-CD3 antibodies-stimulated human T cell activation at 1 uM assessed fold increase in CD25 expression measured by ELISA assay; format: functional, T cell line
[10] = Induction of anti-CD3/CD28 antibodies-stimulated human CD4+ T cell activation at 10 uM assessed fold increase in CD69 expression measured by flow cytometry analysis; format: functional, T cell line
[11] = Induction of anti-CD3/CD28 antibodies-stimulated human CD4+ T cell activation at 10 uM assessed fold increase in cell proliferation measured by flow cytometry analysis; format: functional, T cell line
[12] = Induction of anti-CD3/CD28 antibodies-stimulated human CD4+ T cell activation at 1.11 uM assessed fold increase in cell proliferation measured by flow cytometry analysis; format: functional, T cell line
[13] = Induction of anti-CD3/CD28 antibodies-stimulated human CD8+ T cell activation at 1.11 uM assessed fold increase in CD69 expression measured by flow cytometry analysis; format: functional, T cell line
[14] = Induction of anti-CD3/CD28 antibodies-stimulated human CD8+ T cell activation at 10 uM assessed fold increase in cell proliferation measured by flow cytometry analysis; format: functional, T cell line
[15] = Induction of anti-CD3/CD28 antibodies-stimulated human CD8+ T cell activation at 1.11 uM assessed fold increase in cell proliferation measured by flow cytometry analysis; format: functional, T cell line
[16] = Induction of anti-CD3 antibodies-stimulated human CD4+ T cell activation at 10 uM assessed fold increase in CD69 expression measured by flow cytometry analysis; format: functional, T cell line
[17] = Induction of anti-CD3 antibodies-stimulated human CD4+ T cell activation at 1.11 uM assessed fold increase in CD69 expression measured by flow cytometry analysis; format: functional, T cell line
[18] = Induction of anti-CD3 antibodies-stimulated human CD8+ T cell activation at 10 uM assessed fold increase in CD69 expression measured by flow cytometry analysis; format: functional, T cell line
[19] = Induction of anti-CD3 antibodies-stimulated human CD8+ T cell activation at 1.11 uM assessed fold increase in CD69 expression measured by flow cytometry analysis; format: functional, T cell line
[20] = Induction of anti-CD3/CD28 antibodies-stimulated human T cell activation at 10 uM assessed fold increase in GM-CSF secretion measured by ELISA assay; format: functional, T cell line
[21] = Induction of anti-CD3 antibodies-stimulated human T cell activation at 10 uM assessed fold increase in GM-CSF secretion measured by ELISA assay; format: functional, T cell line
[22] = Induction of anti-CD3 antibodies-stimulated human T cell activation at 1.11 uM assessed fold increase in GM-CSF secretion measured by ELISA assay; format: functional, T cell line
[23] = Induction of anti-CD3/CD28 antibodies-stimulated human T cell activation at 10 uM assessed fold increase in IFN-gamma secretion measured by ELISA assay; format: functional, T cell line
[24] = Induction of anti-CD3/CD28 antibodies-stimulated human T cell activation at 1.11 uM assessed fold increase in IFN-gamma secretion measured by ELISA assay; format: functional, T cell line
[25] = Induction of anti-CD3 antibodies-stimulated human T cell activation at 10 uM assessed fold increase in IFN-gamma secretion measured by ELISA assay; format: functional, T cell line
[26] = Induction of anti-CD3 antibodies-stimulated human T cell activation at 1.11 uM assessed fold increase in IFN-gamma secretion measured by ELISA assay; format: functional, T cell line
[27] = Induction of allogenic human T cell activation at 10 uM assessed fold increase in cell proliferation; format: functional, T cell line
[28] = Induction of allogenic human T cell activation at 3 uM assessed fold increase in cell proliferation; format: functional, T cell line
[29] = Induction of anti-CD3 antibodies-stimulated human exhausted T cell activation assessed fold increase in IFN-gamma secretion measured by ELISA assay; format: functional, T cell line
[30] = Induction of anti-CD3 antibodies-stimulated human exhausted T cell activation assessed fold increase in IL-2 secretion measured by ELISA assay; format: functional, T cell line
[31] = Induction of anti-CD3 antibodies-stimulated human exhausted T cell activation assessed fold increase in GM-CSF secretion measured by ELISA assay; format: functional, T cell line
[32] = Induction of anti-CD3 antibodies-stimulated human exhausted CD4+ T cell activation assessed fold increase in CTLA4 expression measured by flow cytometry analysis; format: functional, T cell line
[33] = Induction of anti-CD3/CD28 antibodies-stimulated human anergic T cell activation at 10 uM assessed fold increase in IFN-gamma secretion measured by ELISA assay; format: functional, T cell line
[34] = Induction of anti-CD3/CD28 antibodies-stimulated human anergic T cell activation at 1.11 uM assessed fold increase in IFN-gamma secretion measured by ELISA assay; format: functional, T cell line
B cell = assay: Induction of anti-IgM-stimulated human CD20+ B cell activation at 10 to 1000 uM assessed as increase in CD69 expression measured as mean fluorescence intensity AUC by flow cytometry analysis; format: functional, cell-based; settings: dose 10-1000 µM
[35] = Induction of activation of human CD56+ CD3- NK cells co-cultured with human K562 cells in 1:1 ratio and assessed as increase in IFN-gamma secretion at 10 uM measured by ELISA assay; format: functional, Natural killer cell
[36] = Induction of activation of human CD56+ CD3- NK cells co-cultured with human K562 cells in 1:1 ratio and assessed as increase in IFN-gamma secretion at 0.625 uM measured by ELISA assay; format: functional, Natural killer cell
[37] = Induction of activation of human CD56+ CD3- NK cells co-cultured with human K562 cells in 1:1 ratio and assessed as increase in TNF-alpha secretion at 2.5 uM measured by ELISA assay; format: functional, Natural killer cell
[38] = Induction of activation of human CD56+ CD3- NK cells co-cultured with human K562 cells in 1:1 ratio and assessed as increase in TNF-alpha secretion at 0.625 uM measured by ELISA assay; format: functional, Natural killer cell

| SMILES | fold change (FC) [1] | fold change (FC) [2] | fold change (FC) [3] | fold change (FC) [4] | fold change (FC) [5] | fold change (FC) [6] | fold change (FC) [7] | fold change (FC) [8] | fold change (FC) [9] | fold change (FC) [10] | fold change (FC) [11] | fold change (FC) [12] | fold change (FC) [13] | fold change (FC) [14] | fold change (FC) [15] | fold change (FC) [16] | fold change (FC) [17] | fold change (FC) [18] | fold change (FC) [19] | fold change (FC) [20] | other results |
| --- | --- | --- | --- | --- | --- | --- | --- | --- | --- | --- | --- | --- | --- | --- | --- | --- | --- | --- | --- | --- | --- |
| C[C@H](Cc1nncn1C)c1cccc(N2Cc3c(cc(CN4CC[C@H](F)C4)cc3C(F)(F)F)C2=O)c1 | >=7.5 | 5 | >=0.201 | 0.151 | 1.31 | 1.31 | 1.01 | >=1.001 | >=1.001 | >1.601 | >4 | >4 | 1.201 | >4 | >4 | >1.601 | >1.601 | 1.401 | 1.401 | >4 | fold change (FC) [21]: >4; fold change (FC) [22]: 2.01; fold change (FC) [23]: >4; fold change (FC) [24]: >4; fold change (FC) [25]: >4; fold change (FC) [26]: 3.01; fold change (FC) [27]: >3; fold change (FC) [28]: 2.01; fold change (FC) [29]: >1.61; fold change (FC) [30]: >3.01; fold change (FC) [31]: >1.61; fold change (FC) [32]: >1.61; fold change (FC) [33]: >4.01; fold change (FC) [34]: >4.01; AUC (B cell): 1.01; fold change (FC) [35]: >=5; fold change (FC) [36]: 2.01; fold change (FC) [37]: >=5; fold change (FC) [38]: 2.01 |
| C[C@H](Sc1nncn1C)c1cccc(NC(=O)c2cccc(C(F)(F)F)n2)c1 | >=7.5 | 1.01 | >=0.201 | 0.051 | >=1.76 | 1.31 | 1.31 | >=1.001 | 0.601 | <=1.2 | <=2 | <=2 | <=1.2 | <=2 | <=2 | <=1.2 | <=1.2 | <=1.2 | <=1.2 | 2.01 | fold change (FC) [21]: 2.01; fold change (FC) [22]: 1.51; fold change (FC) [23]: <=2; fold change (FC) [24]: <=2; fold change (FC) [25]: <=2; fold change (FC) [26]: <=2; fold change (FC) [27]: <=2; fold change (FC) [28]: <=2; fold change (FC) [29]: <=1.4; fold change (FC) [30]: <=2.5; fold change (FC) [31]: 1.41; fold change (FC) [32]: <=1.4; fold change (FC) [33]: 2.51; fold change (FC) [34]: 2.51; AUC (B cell): 0.5; fold change (FC) [35]: 2.01; fold change (FC) [36]: <=1; fold change (FC) [37]: 1.01; fold change (FC) [38]: 1.01 |
| Cc1cc(C(=O)Nc2cccc(C3(Cc4nncn4C)COC3)c2)nc(C2CC2)n1 | >=7.5 | 5 | >=0.201 | >=0.201 | 1.51 | >=1.76 | 1.31 | >=1.001 | >=1.001 | 1.401 | >4 | >4 | 1.201 | >4 | 3.01 | >1.601 | 1.401 | 1.401 | 1.201 | >4 | fold change (FC) [21]: 2.01; fold change (FC) [22]: 2.01; fold change (FC) [23]: >4; fold change (FC) [24]: 2.01; fold change (FC) [25]: >4; fold change (FC) [26]: 2.01; fold change (FC) [27]: >3; fold change (FC) [28]: <=2; fold change (FC) [29]: 1.41; fold change (FC) [30]: >3.01; fold change (FC) [31]: >1.61; fold change (FC) [32]: <=1.4; fold change (FC) [33]: >4.01; fold change (FC) [34]: 2.51; AUC (B cell): > 1.51; fold change (FC) [35]: >=5; fold change (FC) [36]: 2.01; fold change (FC) [37]: 2.01; fold change (FC) [38]: 1.01 |
